The text below walks through data of patent publication US9751837B2, “Kinase inhibitors” (RESPIVERT LIMITED, priority 2014, dated 2017).

This series is described as follows: Solubility in fasted-state simulated colonic fluid (FaSSCoF) at pH 6.5. It is filed as physicochemical. The note with it: 25 °C, pH 6.5, fassgf or other biorelevant, thermodynamic from solid. The procedure: The solubilities of compounds of the invention in FaSSCoF at pH 6.5 are determined using a modification of a previously-reported procedure (Vertzoni, M., et al. Pharm. Res. 2010, 27, 2187-2196). In place of the bile salt extract employed in the original procedure (which extract is no longer available), the modified procedure uses a mixture of sodium taurochlorate (0.15 g), glycocholic acid (0.15 g), ursodeoxycholic acid (0.05 g), cholic acid (0.05 g), and glycodeoxycholic acid (0.05 g). These five bile acids are ground together with a mortar and pestle to produce a fine white powder that is incorporated into the FaSSCoF, as outlined below.
Tris(hydroxymethyl)aminomethane (Tris; 0.275 g) and maleic acid (0.44 g) are dissolved in water (35 mL) to give a solution whose pH is adjusted to 6.5 by treatment with 0.5M NaOH (ca. 12 mL). The solution is then made up to 50 mL with water. A portion of this Tris/maleate buffer solution (ca. 25 mL) is added to a 0.5 L round-bottomed flask, before being treated with 0.00565 g of the bile acid mixture described above. Solutions of phosphatidylcholine (0.0111 g) in DCM (0.15 mL) and palmitic acid (0.0013 g) in DCM (0.15 mL) are added, then the organic solvent is evaporated off under reduced pressure at 40° C. until a clear solution, with no perceptible DCM odour, is achieved. The volume of the evaporated solution is adjusted to 50 mL by addition of the remainder of Tris/maleate buffer, then BSA (0.115 g) is added, before being dissolved by gentle agitation.
Test compounds are suspended in the pH 6.5 FaSSCoF medium to give a maximum final concentration of 2-10 mg/mL. The suspensions are equilibrated at 25° C. for 24 h, before being filtered through a glass fibre C filter. The filtrates are then diluted as appropriate for injection and quantification by HPLC with reference to a standard. Different volumes of the standard, diluted and undiluted sample solutions are injected and the solubilities are calculated using the peak areas determined by integration of the peak found at the same retention time as the principal peak in the standard injection.

Where [1] appears, read: pH 6.5 FaSSCoF Solubility (mg/mL) Run 1.
Setting [2] is: pH 6.5 FaSSCoF Solubility (mg/mL) Run 2.

SMILES strings stand for the structures. In brackets after ≈: the same amount, converted by molar mass. Structures can show the parent of a compound that is named as a salt.

Broadly, the solubility (thermodynamic) is solubility found after equilibrating the solid with the medium. For the molecule `COc1c(NC(=O)Nc2ccc(Oc3ccnc(Nc4ccc(C(=O)O)c(N(C)C)c4)c3)c3ccccc23)cc(C(C)(C)C)cc1NS(C)(=O)=O` [17(am), 4-[[4-[[4-[[5-tert-butyl-3-(methanesulfonamido)-2-methoxy-phenyl]carbamoylamino]-1-naphthyl]oxy]-2-pyridyl]amino]-2-(dimethylamino)benzoic acid], the solubility (thermodynamic) at 24 h reads like this: under setting [1], 10 µg/mL (≈ 14 µM); under setting [2], 12 µg/mL (≈ 16.8 µM).

`COc1cc(Nc2cc(Oc3ccc(NC(=O)Nc4cc(C(C)(C)C)cc(NS(C)(=O)=O)c4OC)c4ccccc34)ccn2)ccc1C(=O)NCC(=O)O` [17(ar) (hydrochloride salt), 2-(4-((4-((4-(3-(5-(tert-Butyl)-2-methoxy-3-(methylsulfonamido)phenyl)ureido)naphthalen-1-yl)oxy)pyridin-2-yl)amino)-2-methoxybenzamido)acetic acid]: the solubility (thermodynamic) at 24 h was 204 µg/mL under setting [1] and 198 µg/mL under setting [2].

With `COc1cc(Nc2cc(Oc3ccc(NC(=O)Nc4cc(C(C)(C)C)cc(NS(C)(=O)=O)c4OC)c4ccccc34)ccn2)cc(OC)c1C(=O)NCCC1CCN(C)CC1` [17(at), 4-((4-((4-(3-(5-(tert-Butyl)-2-methoxy-3-(methylsulfonamido)phenyl)ureido)naphthalen-1-yl)oxy)pyridin-2-yl)amino)-2,6-dimethoxy-N-(2-(1-methylpiperidin-4-yl)ethyl)benzamide], the thermodynamic solubility at 24 h reads like this: under setting [1], 9 µg/mL (≈ 10.5 µM); under setting [2], 9 µg/mL (≈ 10.5 µM).

As for `COc1cc(Nc2cc(Oc3ccc(NC(=O)Nc4cc(C(C)(C)C)cc(NS(C)(=O)=O)c4OC)c4ccccc34)ccn2)ccc1C(=O)NCCC(=O)O` [17(ay) (hydrochloride salt), 3-(4-((4-((4-(3-(5-(tert-Butyl)-2-methoxy-3-(methylsulfonamido)phenyl)ureido)-naphthalen-1-yl)oxy)pyridin-2-yl)amino)-2-methoxybenzamido)propanoic acid], the thermodynamic solubility at 24 h reads like this: under setting [1], 29 µg/mL; under setting [2], 28 µg/mL.

Under setting [1], `COc1cc(Nc2cc(Oc3ccc(NC(=O)Nc4cc(C(C)(C)C)cc(NS(C)(=O)=O)c4OC)c4ccccc34)ccn2)ccc1C(=O)N[C@@H](CO)C(=O)O` [17(bj) (sodium salt), (S)-2-(4-((4-((4-(3-(5-(tert-Butyl)-2-methoxy-3-(methylsulfonamido)phenyl)ureido)-naphthalen-1-yl)oxy)pyridin-2-yl)amino)-2-methoxybenzamido)-3-hydroxypropanoic acid] yielded a thermodynamic solubility at 24 h of 1310 µg/mL.

In the case of `CCC(=O)NS(=O)(=O)c1ccc(Nc2nccc(Oc3ccc(NC(=O)Nc4cc(C(C)(C)C)cc(NS(C)(=O)=O)c4OC)c4ccccc34)n2)cc1OC` [17(bk) (sodium salt), N-((4-((4-((4-(3-(5-(tert-Butyl)-2-methoxy-3-(methylsulfonamido)phenyl)ureido)-naphthalen-1-yl)oxy)pyrimidin-2-yl)amino)-2-methoxyphenyl)sulfonyl)propionamide], the thermodynamic solubility at 24 h reads like this: under setting [1], 42 µg/mL; under setting [2], 37 µg/mL.

On to `COc1cc(Nc2cc(Oc3ccc(NC(=O)Nc4cc(C(C)(C)C)cc(NS(C)(=O)=O)c4OC)c4ccccc34)ccn2)ccc1C(=O)NCCO` [17(bn), 4-((4-((4-(3-(5-(tert-Butyl)-2-methoxy-3-(methylsulfonamido)phenyl)ureido)naphthalen-1-yl)oxy)pyridin-2-yl)amino)-N-(2-hydroxyethyl)-2-methoxybenzamide], for which the thermodynamic solubility at 24 h was 8 µg/mL (≈ 10.8 µM) under setting [1] and 6 µg/mL (≈ 8.08 µM) under setting [2].

Regarding `COc1cc(Nc2cc(Oc3ccc(NC(=O)Nc4cc(C(C)(C)C)cc(NS(C)(=O)=O)c4OC)c4ccccc34)ccn2)ccc1C(=O)N[C@H]1C(O)O[C@H](CO)[C@@H](O)[C@@H]1O` (stereo partly drawn) [17(br), 4-((4-((4-(3-(5-(tert-Butyl)-2-methoxy-3-(methylsulfonamido)phenyl)ureido)naphthalen-1-yl)oxy)pyridin-2-yl)amino)-2-methoxy-N-((3R,4R,5S,6R)-2,4,5-trihydroxy-6-(hydroxymethyl)tetrahydro-2H-pyran-3-yl)benzamide], the thermodynamic solubility at 24 h was 9 µg/mL (≈ 10.5 µM) under setting [1] and 8 µg/mL (≈ 9.29 µM) under setting [2].

Consider `COc1cc(Nc2cc(Oc3ccc(NC(=O)Nc4cc(C(C)(C)C)cc(NS(C)(=O)=O)c4OC)c4ccccc34)ccn2)ccc1C(=O)NCCCC[C@H](N)C(=O)O` [17(bu) (dihydrochloride salt), (S)-2-Amino-6-(4-((4-((4-(3-(5-(tert-butyl)-2-methoxy-3-(methylsulfonamido)phenyl)-ureido)naphthalen-1-yl)oxy)pyridin-2-yl)amino)-2-methoxybenzamido)hexanoic acid], for which the thermodynamic solubility at 24 h is, setting by setting: under setting [1], 6 µg/mL; under setting [2], 6 µg/mL.

For `COc1cc(Nc2cc(Oc3ccc(NC(=O)Nc4cc(C(C)(C)C)cc(NS(C)(=O)=O)c4OC)c4ccccc34)ccn2)ccc1C(=O)NC[C@H](O)[C@@H](O)[C@H](O)[C@H](O)CO` [17(bw), 4-((4-((4-(3-(5-(tert-Butyl)-2-methoxy-3-(methylsulfonamido)phenyl)ureido)naphthalen-1-yl)oxy)pyridin-2-yl)amino)-2-methoxy-N-((2S,3R,4R,5R)-2,3,4,5,6-pentahydroxyhexyl)benzamide], the thermodynamic solubility at 24 h reads like this: under setting [1], 2 µg/mL (≈ 2.32 µM); under setting [2], 3 µg/mL (≈ 3.48 µM).

The molecule `COc1cc(Nc2cc(Oc3ccc(NC(=O)Nc4cc(C(C)(C)C)cc(NS(C)(=O)=O)c4OC)c4ccccc34)ccn2)cc(OC)c1C(=O)NC1CCN(C)CC1` [17(bz), 4-((4-((4-(3-(5-(tert-Butyl)-2-methoxy-3-(methylsulfonamido)phenyl)ureido)naphthalen-1-yl)oxy)pyridin-2-yl)amino)-2,6-dimethoxy-N-(1-methylpiperidin-4-yl)benzamide] yielded a solubility (thermodynamic) at 24 h under setting [1] of 21 µg/mL (≈ 25.4 µM), a solubility (thermodynamic) at 24 h under setting [2] of 26 µg/mL (≈ 31.5 µM), a thermodynamic solubility at 24 h (pH 6.5 FaSSCoF Solubility (mg/mL) Run 3) of 14 µg/mL (≈ 16.9 µM) and a thermodynamic solubility at 24 h (pH 6.5 FaSSCoF Solubility (mg/mL) Run 4) of 19 µg/mL (≈ 23 µM).

Regarding `COc1cc(Nc2cc(Oc3ccc(NC(=O)Nc4cc(C(C)(C)C)cc(NS(C)(=O)=O)c4OC)c4ccccc34)ccn2)ccc1C(=O)NCCNC(=O)CCC(=O)O` [17(cd) (hydrochloride salt), 4-((2-(4-((4-((4-(3-(5-(tert-Butyl)-2-methoxy-3-(methylsulfonamido)phenyl)ureido)-naphthalen-1-yl)oxy)pyridin-2-yl)amino)-2-methoxybenzamido)ethyl)amino)-4-oxobutanoic acid], the thermodynamic solubility at 24 h runs as follows: under setting [1], 51 µg/mL; under setting [2], 49 µg/mL.

Consider `COc1cc(Nc2cc(Oc3ccc(NC(=O)Nc4cc(C(C)(C)C)cc(NS(C)(=O)=O)c4OC)c4ccccc34)ccn2)ccc1C(=O)NCCC(=O)N1C[C@H](O)[C@@H](O)[C@H](O)[C@H]1CO` [17(cf), 4-((4-((4-(3-(5-(tert-Butyl)-2-methoxy-3-(methylsulfonamido)phenyl)ureido)naphthalen-1-yl)oxy)pyridin-2-yl)amino)-2-methoxy-N-(3-oxo-3-((2R,3R,4R,5S)-3,4,5-trihydroxy-2-(hydroxymethyl)piperidin-1-yl)propyl)benzamide], for which the solubility (thermodynamic) at 24 h runs as follows: under setting [1], 3 µg/mL (≈ 3.28 µM); under setting [2], 1 µg/mL (≈ 1.09 µM).

On to `COc1cc(Nc2cc(Oc3ccc(NC(=O)Nc4cc(C(C)(C)C)cc(NS(C)(=O)=O)c4OC)c4ccccc34)ccn2)cc(OC)c1C(=O)N1CCN(CCN(C)C)CC1` [17(cg), N-(5-(tert-Butyl)-3-(3-(4-((2-((4-(4-(2-(dimethylamino)ethyl)piperazine-1-carbonyl)-3,5-dimethoxyphenyl)amino)pyridin-4-yl)oxy)naphthalen-1-yl)ureido)-2-methoxyphenyl)methane sulfonamide], for which the solubility (thermodynamic) at 24 h under setting [1] is 2 µg/mL (≈ 2.3 µM).

Take `COc1cc(Nc2cc(Oc3ccc(NC(=O)Nc4cc(C(C)(C)C)cc(NS(C)(=O)=O)c4OC)c4ccccc34)ccn2)ccc1C(=O)NCCN1CCN(C(=O)CN(C)C)CC1` [17(cj), 4-((4-((4-(3-(5-(tert-Butyl)-2-methoxy-3-(methylsulfonamido)phenyl)ureido)naphthalen-1-yl)oxy)pyridin-2-yl)amino)-N-(2-(4-(2-(dimethylamino)acetyl)piperazin-1-yl)ethyl)-2-methoxybenzamide]: the thermodynamic solubility at 24 h is 6 µg/mL (≈ 6.7 µM) under setting [1] and 6 µg/mL (≈ 6.7 µM) under setting [2].
